Test results: patent publication US6495376B1, “Methods and compositions for regulating protein-protein interactions” (Beth Israel Deaconess Medical Center, priority 1999, dated 2002)
Where two headings read alike, the source gives them in different places.

How the values were obtained:
[1] = biological target: T1, Pin1^Y23A (Homo sapiens, UniProt Q13526, Y23A); assay: ELISA peptide binding to Pin1^Y23A; conditions: mutant Pin1^Y23A
T1 construct: mitotic HeLa cell extracts incubated with the entire Pin1 protein or its WW-domain; GST or His (N); made in house
T1 sequence (Q13526 whole entry Y23A): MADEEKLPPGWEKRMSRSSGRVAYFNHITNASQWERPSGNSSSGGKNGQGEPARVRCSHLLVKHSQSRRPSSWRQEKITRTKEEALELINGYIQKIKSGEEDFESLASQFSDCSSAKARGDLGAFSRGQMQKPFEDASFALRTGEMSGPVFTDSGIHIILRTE

[2] = biological target: Pin1 (Homo sapiens, UniProt Q13526); assay: ELISA peptide binding to Pin1; conditions: Pin1
Pin1, sequence (Q13526 whole entry): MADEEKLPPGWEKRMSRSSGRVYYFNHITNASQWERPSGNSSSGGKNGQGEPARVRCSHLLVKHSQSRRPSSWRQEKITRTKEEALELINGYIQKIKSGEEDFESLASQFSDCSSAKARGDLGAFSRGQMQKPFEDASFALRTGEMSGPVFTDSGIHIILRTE

[3] = biological target: T2, Pin1^R14A (Homo sapiens, UniProt Q13526, R14A); assay: ELISA peptide binding to Pin1^R14A; conditions: mutant Pin1^R14A
T2 construct: mitotic HeLa cell extracts incubated with the entire Pin1 protein or its WW-domain; GST or His (N); made in house
T2 sequence (Q13526 whole entry R14A): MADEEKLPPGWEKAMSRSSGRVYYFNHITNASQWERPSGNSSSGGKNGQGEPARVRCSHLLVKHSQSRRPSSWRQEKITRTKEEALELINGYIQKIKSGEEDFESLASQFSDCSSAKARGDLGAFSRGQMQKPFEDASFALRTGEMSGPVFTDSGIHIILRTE

[4] = biological target: WFYSPFLE; assay: Fluorescence anisotropy binding to fluorescein-labeled nonphosphorylated control peptide; conditions: GST-WW-domains, N.B., not binding detected
[5] = biological target: WFYpSPFLE (Pintide); assay: Fluorescence anisotropy (polarization) binding to fluorescein-labeled phosphorylated Pintide analogue; conditions: for Kd for Pintide (μM): fluorescein labeled Pintide, high affinity pSer-binding site in the WW-domain
Source text: To determine the affinity of Pin1, and its WW or PPIase domain for phosphopeptides, peptides were labeled with fluorescein and their interactions with Pin1 measured using quantitative fluorescence anisotrophy. To prevent nonspecific labeling, a Pintide analogue (WFYpSPFLE) SEQ ID NO: 9 was used, which binds Pin1 with a high affinity based on the peptide library screen as described by (Lu, K. P. et al., U.S. Ser. No. 60/058,164 (1997), the teachings of which are incorporated herein in their entirety.
(§1) Pintide and its nonphosphorylated counterpart were synthesized and incubated with GST-Pin1 or the GST-WW-domain of Pin1 in a binding buffer, using established procedures (Shen, M. et al., Genes & Dev 12:706 (1998)). After a 1 hr incubation, mitotic HeLa cell extracts were added and subjected to GST pull down experiments, followed by immunoblotting analysis using the MPM-2 antibody. To obtain semi-quantitative data, films of immunoblots were scanned at the region of 55 kDa, the major Pin1-binding protein, and data analyzed using ImageQuan (ScanJet II CX). The peptide binding constants were measured using a fluorescence polarization assay (Jiskoot, W. et al., Anal Biochem 196:421 (1991)). Peptides were fluorescein labeled at the N-terminus using the Fluorescein Amine Labeling Kit (Pan Vera Corp.) and purified by TLC according to the manufacturer's […]. To prevent nonspecific labeling, a Pintide analogue (WFYpSPFLE) SEQ ID NO: 8 and the nonphosphorylated control were used. Various concentrations of Pin1 and its mutant proteins were incubated with 0.1 μM of the labeled peptides in a binding buffer containing 50 mM HEPES, pH 7.4, 100 mM NaCl, 2% glycerol. Fluorescence polarization values were obtained using a Pan Vera Beacon 2000 system, as described by the manufacturer.

[6] = biological target: […] (Cdc25 Peptide, nonphosphorylated); assay: GST-WW-domain incubated with peptide on a membrane, immunoblotting with GST antibody; format: binding
[7] = tested on: MPM-2 antigens (mitotic phosphoproteins) of mitotic HeLa cell extracts; assay: GST pulldown from mitotic HeLa cell extracts, MPM-2 immunoblotting (phosphoprotein-binding activity); conditions: for binding to mitotic phosphoproteins / MPM-2 antigens (in words): mitotic HeLa cell extracts; for Phosphoprotein binding activity: GST-fusion proteins with mitotic extracts, MPM2 antibody
Experimental: GST-fusion proteins containing the WW-domain, PPIase-domain or the entire Pin 1 protein were prepared and incubated with interphase (G1/S arrested; Control) or dividing (M phase) HeLa cell extracts using well-known procedures (Lu, K. P., et al., Nature 380:544 (1996); (Shen, M., et al., Genes & Devl. 12:706 (1998)). Briefly, HeLa cells were arrested at the G1/S boundary or mitosis by incubation with thymidine and aphidicolin or nocodazole for 16 h, respectively. The cells were lysed and supernatants incubated with 10 μl of agarose beads containing GST-Pin1; GST-WW-domain of Pin1; GST-PPIase domain of Pin1; or control GST for 2 h at 4° C. The phosphorylated precipitated proteins were washed 5 times in buffer containing 1% Triton X-100 before subjecting to immunoblotting analysis using MPM-2 antibody, as described previously (Yaffe, M. B. et al., Science 278:1957 (1997); Schukowski, et al., Biochemistry 37:5566 (1998); Shen, M. et al., Genes & Dev 12:706 (1998)). MPM-2 recognizes a subset of mitotic phosphoproteins including Pin1-binding proteins such as cdc25.
as §1
To examine the effect of Pin1 phosphorylation on Pin1 binding to ligands, Pin1 and Pin1 mutant proteins were incubated with the catalytic subunit of PKA and PKC (a mixture of α, β and γ, UBI) in a kinase reaction buffer containing 500 μM cold ATP at 30° C. for 15 min (Lu, K. P. et al., Anal. Biochem. 196:421 (1991)). The reactions were stopped by adding SDS sample buffer and reaction products separated on SDS-gels, followed by autoradiography. Pin1 proteins were isolated and used to bind MPM-2 antigens from mitotic extracts from HeLa cells, as previously described (Shen, M., et al., Genes & Dev 12:706 (1998)). Experiments were also performed with PKA and PKC, casein kinase, cyclin B/Cdc2 and SRPK1 kinases.

[8] = biological target: EQPLpTPVTDL (Cdc25 Peptide); assay: Fluorescence anisotropy binding to fluorescein-labeled phosphorylated Cdc25 peptide; conditions: GST-WW-domains
[9] = tested on: temperature-sensitive ptf1 yeast mutant (YPM2); assay: Rescue of temperature-sensitive ptf1 yeast mutant (in vivo function); format: cell-based; conditions: YPM2 cells, restrictive temperature
Experimental: Given the essential role of the WW-domain in conferring Pin1-binding specificity in vitro, a critical question is whether this domain is important in vivo. To address this question, experiments using the PIN1 yeast homologue, ESS1/PTF1 were performed. ESS1/PTF1 is essential for cell growth and human Pin1 can carry out this essential function when transfected into yeast cells (Lu, K. P. et al., Nature 380:544 (1996); Hanes, S. D. et al., Yeast 5:55 (1989); Hani, J. et al., FEBS Lett. 365:198 (1995)). A temperature-sensitive ptf1 mutant strain, YPM2, grows at the permissive temperature (23° C.), but not at the restrictive temperature (30° C.) (Hanes, S. D. et al., Yeast 5:55 (1989); Hani, J. et al., FEBS Lett. 365:198 (1995)). This phenotype is completely rescued by a 1.5 kb PTF1 genomic fragment, which also contains the promoter and the 3′ processing sequence (FIG. 3). To insure that all human Pin1 proteins were expressed at physiological levels under normal regulation, the coding sequence of the fully functional ESS1/PTF1 gene in a Yepvector was replaced with the coding sequence of the human PIN1 (or Pin1 mutant) cDNA (FIG. 3) and transformed into a temperature-sensitive ptf1 strain. Transformants were selected on minimal media minus Leu at the permissive temperature (23° C.) and protein expression was detected by immunoblotting analysis using 12CA5 monoclonal antibody specific for the HA epitope tag inserted at the N-terminus. […] Those strains expressing similar levels of Pin1 and Pin1 mutants were grown at permissive and nonpermissive temperature.

[10] = tested on: peptide substrate; assay: PPIase activity assay with peptide substrate; format: biochemical; conditions: relative to wild-type protein defined as 100%
[11] = tested on: tau-promoted MT assembly; assay: Microtubule assembly light-scattering assay (turbidity at 350 nm); format: biochemical; conditions: 0.05 mg/ml protein, 0.05 mg/ml tau
tau-promoted MT assembly, sequence (P10636 45-219 isoform P10636-2 limits assumed): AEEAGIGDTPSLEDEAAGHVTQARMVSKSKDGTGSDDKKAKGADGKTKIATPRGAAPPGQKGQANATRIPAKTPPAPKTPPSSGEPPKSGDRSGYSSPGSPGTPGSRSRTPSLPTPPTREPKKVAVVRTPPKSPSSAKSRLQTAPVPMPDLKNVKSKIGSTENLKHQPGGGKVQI
Experimental: The effect of Pin1 on the ability of phosphorylated tau to promote MT assembly was determined using light-scattering assays (Bramblett, G. T. et al., Neuron 10:1089-1099(1993); Alonso, A. C. et al., Proc Natl Acad Sci USA 91:5562-5566 (1994); Busciglio, J. et al., Neuron 14:879-888 (1995)). Briefly, MTs were assembled from phosphocellulose purified bovine tubulin (Cytoskeleton, Inc) and stabilized by Taxol. The nonphosphorylated or Cdc2 phosphorylated recombinant tau (0.1 mg/ml) was incubated with Pin1 (0.1 mg/ml) at 35° C. for 5 min before adding to the MTs. Bound tau was isolated by centrifugation (50,000×g) at 25° C. for 20 min, followed by immunoblotting analysis using CP27 and Pin1 antibodies. The ability of tau to promote MT assembly was determined using well established light-scattering assays. Briefly, the assembly of MTs was initiated by incubating tubulin (2 mg/ml) with or without tau (0.05 mg/ml) in 80 mM PIPES, pH 6.8, 1 mM EGTA, 1 mM MgCl2, 1 mM GTP, 20% glycerol at 35° C. for 2 min. The mixture was then transferred to a 100 μl cuvet and the rate of the MT assembly was monitored at room temperature using the turbidity increase at 350 nm. To examine the effect of Pin1, Pin1 or its mutant (0.05 mg/ml) was pre-incubated with tau or Cdc2 phosphorylated tau (0.05 mg/ml) at 35° C. for 5 min before the MT assembly assays.

[12] = low affinity binding site, read-out: WFYpSPFLE Kd(μM) Low affinity

Row | Compound | Binding (OD@405 nm), tau peptide [1] [OD@405 nm] | Binding (OD@405 nm), tau peptides [2] [OD@405 nm] | Binding (OD@405 nm), tau peptide [3] [OD@405 nm] | Kd (μM) Pintide nonphosphorylated WFYSPFLE [4] | Kd (μM) Pintide nonphosphorylated WFYSPFLE ([4]; listed as WW-domain of Nedd4) | Kd ([5]; GST-WW-domains, fluorescein-labeled peptide, average of three independent experiments, read-out: Kd (μM) Pintide WFYpSPFLE) [µM] | Kd (μM) Cdc25 Peptide EQPLTPVTDL [6] | binding to mitotic phosphoproteins / MPM-2 antigens (in words) [7] | Kd [8] [µM] | WFYpSPFLE Kd(μM) High affinity ([5]; high affinity binding site) | Kd [5, 12] [µM] | complementation of temperature-sensitive ptf1 phenotype (in words) [9] | PPlase Activity (%) [10] [%] | Phosphoprotein binding activity [7] | Kd for Pintide (μM) [5] | effect on ability of Cdc2 phosphorylated tau to promote MT assembly [11]
1 | CC(C)[C@H](NC(=O)[C@H](C)NC(=O)[C@@H](NC(=O)[C@@H](N)CCCCN)C(C)C)C(=O)N[C@H](C(=O)N[C@@H](CCCNC(=N)N)C(=O)N[C@H](C(=O)N1CCC[C@H]1C(=O)N1CCC[C@H]1C(=O)N[C@@H](CCCCN)C(=O)N[C@@H](CO)C(=O)N1CCC[C@H]1C(=O)N[C@@H](CO)C(=O)O)[C@@H](C)OP(=O)(O)O)C(C)C [pT-231] | 0.00 | 1.46 | 1.30 |  |  |  |  |  |  |  |  |  |  |  |  | 
2 | Nedd4 WW-domain: GST-WW-domain of ubiquitin ligase Nedd4; text ties Table 1 to WW-domain-2 |  |  |  | N.B. | did not bind | 10 | N.B.* | bound only a few MPM-2 antigens | 20 |  |  |  |  |  |  | 
3 | Pin1^S16E: Pin1 with Ser-16 mutated to Glu |  |  |  |  |  |  |  | failed to bind mitotic phosphoproteins |  | no high affinity-binding site | 10.5 | abolish the ability of Pin1 to support cell growth | 95 | − |  | 
4 | Pin1^W34A: Pin1 with single Ala point mutation of Trp-34 in the WW-domain |  |  |  |  |  |  |  | completely abolished |  |  | 14 | abolish the ability of Pin1 to support cell growth | 94 | − | N.B. | 
5 | Pin1^Y23A: Pin1 with single Ala point mutation of Tyr-23 in the WW-domain |  |  |  |  |  |  |  | completely abolished |  |  | 13.5 | abolish the ability of Pin1 to support cell growth | 85 | − | N.B. | did not have any effect
